pIC50: −log10 of the molar value.
Experiments:
[1] = target: Acetylcholinesterase (Homo sapiens, UniProt P22303)
Description: Inhibitory concentration against human recombinant acetylcholinesterase

[2] = target: Cholinesterase (Homo sapiens, UniProt P06276)
Description: Inhibitory concentration against human recombinant butyrylcholinesterase

[3] = species on record: Homo sapiens; test: Percentage increase of intracellular reactive oxygen species in neuronal cells at 5 uM; format: functional
[4] = species on record: Homo sapiens; test: Percentage increase of intracellular reactive oxygen species in neuronal cells at 50 uM; Cytotoxicity; format: functional
[5] = species on record: Homo sapiens; test: Percentage increase of intracellular reactive oxygen species in neuronal cells at 0.5 uM; format: functional
[6] = species on record: Homo sapiens; test: Percentage increase of intracellular reactive oxygen species in neuronal cells at 0.1 uM; format: functional
[7] = species on record: Homo sapiens; test: Percentage increase of intracellular reactive oxygen species in neuronal cells at 1 uM; format: functional
[8] = species on record: Homo sapiens; test: Percentage increase of intracellular reactive oxygen species in neuronal cells at 0 uM; format: functional
[9] = species on record: Homo sapiens; test: Percentage increase of intracellular reactive oxygen species in neuronal cells at 10 uM; Cytotoxicity; format: functional
[10] = species on record: Homo sapiens; test: Percentage increase of intracellular reactive oxygen species in neuronal cells at 50 uM; format: functional
[11] = species on record: Homo sapiens; test: Percentage increase of intracellular reactive oxygen species in neuronal cells at 10 uM; format: functional

Chain of Cholinesterase (P06276 whole entry): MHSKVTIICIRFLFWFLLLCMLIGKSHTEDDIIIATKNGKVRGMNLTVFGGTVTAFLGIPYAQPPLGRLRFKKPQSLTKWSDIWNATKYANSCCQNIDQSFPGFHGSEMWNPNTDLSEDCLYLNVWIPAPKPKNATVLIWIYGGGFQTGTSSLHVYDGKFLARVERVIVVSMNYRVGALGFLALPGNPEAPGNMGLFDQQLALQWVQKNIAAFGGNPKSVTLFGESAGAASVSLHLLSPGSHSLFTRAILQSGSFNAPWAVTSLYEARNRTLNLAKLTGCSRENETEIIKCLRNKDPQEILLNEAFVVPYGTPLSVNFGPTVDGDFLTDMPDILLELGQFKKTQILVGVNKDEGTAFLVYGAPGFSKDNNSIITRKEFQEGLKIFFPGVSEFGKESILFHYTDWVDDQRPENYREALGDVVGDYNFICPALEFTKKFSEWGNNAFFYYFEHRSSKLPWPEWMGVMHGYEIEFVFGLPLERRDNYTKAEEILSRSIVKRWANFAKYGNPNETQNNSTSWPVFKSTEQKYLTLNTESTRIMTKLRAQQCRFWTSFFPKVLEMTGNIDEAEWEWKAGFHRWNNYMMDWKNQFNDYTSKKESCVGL
Chain of Acetylcholinesterase (P22303 whole entry): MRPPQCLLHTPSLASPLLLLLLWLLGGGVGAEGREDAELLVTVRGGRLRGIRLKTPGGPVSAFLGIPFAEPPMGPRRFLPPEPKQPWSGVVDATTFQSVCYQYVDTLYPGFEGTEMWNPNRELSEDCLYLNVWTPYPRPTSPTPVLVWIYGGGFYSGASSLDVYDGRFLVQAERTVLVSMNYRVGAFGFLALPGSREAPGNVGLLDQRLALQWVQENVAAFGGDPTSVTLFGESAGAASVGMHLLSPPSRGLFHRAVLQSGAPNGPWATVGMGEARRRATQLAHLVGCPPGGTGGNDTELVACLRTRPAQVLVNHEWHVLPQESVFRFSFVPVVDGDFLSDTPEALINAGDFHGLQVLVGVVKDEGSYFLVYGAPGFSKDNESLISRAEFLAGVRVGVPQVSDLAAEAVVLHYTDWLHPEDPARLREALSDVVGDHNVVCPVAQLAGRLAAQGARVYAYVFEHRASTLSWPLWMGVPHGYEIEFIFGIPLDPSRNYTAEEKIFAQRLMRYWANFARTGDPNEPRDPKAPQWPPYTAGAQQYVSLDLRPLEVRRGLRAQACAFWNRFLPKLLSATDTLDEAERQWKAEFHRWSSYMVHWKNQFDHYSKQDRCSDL

| SMILES | pIC50 [1] | pIC50 [2] | Activity [3] | Activity [4] | Activity [5] | Activity [6] | Activity [7] | Activity [8] | Activity [9] | Activity [10] | Activity [11] |
| --- | --- | --- | --- | --- | --- | --- | --- | --- | --- | --- | --- |
| Nc1c2c(nc3cc(Cl)ccc13)CC(CNC(=O)CCCCC1CCSS1)CC2 (configuration not stated) | 5.96 | 6.48 | – | – | – | – | – | – | – | – | – |
| NCCCNc1c2c(nc3cc(Cl)ccc13)CCCC2 | – | 5.59 | 82.5% | Toxic | 99.67% | 99.5% | 96.67% | 86% | Toxic | – | – |
| O=C(CCCCC1CCSS1)NCCCNc1c2c(nc3cc(Cl)ccc13)CCCC2 (racemic) [LIPOCRINE] | – | – | 61.67% | – | 95% | 88.75% | 77% | 86% | – | 30.5% | 51.25% |
